Test results published in PMC7114565 (Virus Research, 2016).
Where “and” joins values, the source holds several entries; their conditions need not be identical. Identical values can stand only once. Entries after “also recorded” stand apart in the source; their conditions may differ.

Columns and labels:
MERS-CoV EMC/2012 [1] = type: cell-based
SARS-CoV = type: cell-based
[2] = system: murine hepatitis virus (MHV; strain A59); type: cell-based
[3] = system: human coronavirus 229E (HCoV-229E); type: cell-based
MERS-CoV EMC/2012 [4] = system: MERS-CoV EMC/2012
HCoV-NL63 = details: cited from earlier work
in vitro [5] = details: rhesus monkey
in vitro [6] = details: mouse
MERS-CoV EMC/2012 [7] = assay: microbe, parasite or virus in culture; details: Middle East respiratory syndrome-related coronavirus, Huh-7, 48 h

SMILES	decrease in MERS-CoV progeny titer (MERS-CoV EMC/2012 [1])	reduction of MERS-CoV progeny titer (MERS-CoV EMC/2012 [1]) [log]	effect on SARS-CoV infection (SARS-CoV)	reduction in SARS-CoV virus progeny (SARS-CoV) [log]	decrease of MHV progeny titers [2] [log]	reduction of MHV progeny titers [2] [log]	reduction of HCoV-229E production [3]	CC50 values times higher than the observed EC50 values (MERS-CoV EMC/2012 [4])	EC50 (HCoV-NL63) [µM]	reduction in HCoV-NL63 virus progeny (HCoV-NL63) [log]	CC50 (in vitro [5]) [µM]	viability (in vitro [6]) [%]	EC50 (MERS-CoV EMC/2012 [7]) [µM]	effect on cell viability (LLC-MK2 cells)
C/C=C/C[C@@H](C)[C@@H](O)[C@H]1C(=O)N[C@@H](CC)C(=O)N(C)[C@H](C)C(=O)N(CC)[C@@H](C(C)C)C(=O)N[C@@H](C(C)C)C(=O)N(C)[C@@H](CC(C)C)C(=O)N[C@@H](C)C(=O)N[C@H](C)C(=O)N(C)[C@@H](CC(C)C)C(=O)N(C)[C@@H](CC(C)C)C(=O)N(C)[C@@H](C(C)C)C(=O)N1C [ALV, alisporivir]	comparable decrease in progeny titer	~2	sensitive; also recorded: near-complete block	~1.5	1	~2	~1.5 log and ~2 log	7–13 times	0.8	4	14.3 ± 1.8	> 85	3.4 ± 1	
NC(=O)c1ncn([C@@H]2O[C@H](CO)[C@@H](O)[C@H]2O)n1 [ribavirin]														gradually lowered the cell viability
